From patent publication US20220276262A1, “Methods and Products for Assessing Lysosomal System Flux” (SOUTH AUSTRALIAN HEALTH AND MEDICAL RESEARCH INSTITUTE …, priority 2019, published 2022)
“Also recorded” adds a separate entry of the source.

What was measured:
LC3B-II in PBMCs = experiment: Autophagic flux in PBMCs by lysosomal inhibition in whole blood, LC3B western blot; format: cell-based, human
Procedure: Blood was collected in lithium heparin (Greiner Bio-One, vacuette tube 9 ml lithium heparin, 455084), or EDTA (Greiner Bio-One, vacuette tube 9 ml K3EDTA, 455036) blood collection tubes (6-9 ml). Unless otherwise stated, blood samples were split into two (2×3 ml) and pipetted into 10 ml conical centrifuge tubes. One of the blood samples was treated with a final concentration of 150 μM of chloroquine (CQ, chloroquine diphosphate, Sigma Aldrich, C6628) (9 μl of 50 mM for a final volume of 3 ml of blood). Blood was mixed gently by inverting both tubes 3-4 times. Both tubes (+CQ and −CQ) were incubated at 37° C. for 1 hour with rotation (10 revolutions per minute, Thermo Scientific Tube Revolver, 88881002).
After blood was incubated for 1 hour at 37° C., blood tubes were kept on ice to stop enzyme activity and vesicular trafficking. PBMCs were then isolated using standard procedures. To each tube, 3 ml of cold DPBS (Dulbecco's Phosphate-Buffered Saline, GIBCO) was added to 3 ml of blood (1:1) and samples were mixed by gently inverting tubes 3-4 times. Four ml of Lymphoprep (Stemcell Technologies, 07811) was carefully underlayed beneath the blood/DPBS mixture using a 10 mL syringe and a canula (sterile). This was repeated for both blood tubes (containing blood incubated without and with CQ). Tubes containing blood/DPBS underlayed with lymphoprep were centrifuged for 30 min at 800 g, with brake off at 4° C.
PBMCs were carefully aspirated with a 1 mL pipette and dispensed into a 10 mL conical centrifuge tube (approximately 2 ml volume containing PBMCs). PBMCs were then diluted with cold DPBS to a final volume of 5 ml. PBMCs and DPBS were mixed gently by inverting tubes 3-4 times. PBMCs were then pelleted by centrifugation at 600 g for 10 min at 4° C. (with brake). The supernatant was discarded.
PBMCs were resuspended with 1 ml of red blood cell lysis buffer (1×, BD Biosciences, 555899) and were mixed by gently pipetting. PBMCs were left on ice for 2 minutes, after which they were pelleted by centrifugation at 600 g for 5 min at 4° C. The supernatant was discarded and PBMCs were washed by resuspension in 5 ml of cold DPBS. PBMCs were pelleted again by centrifugation at 600 g for 5 min at 4° C. The supernatant was discarded and the cells were again resuspended in 1 ml of cold DPBS and this suspension was transferred to a 1.5 ml microcentrifuge tube. This tube was centrifuged at 2,000 g for 10 min at 4° C. The supernatant was discarded and the pellet containing PBMCs was frozen on dry ice and stored at −80° C. until biochemical analyses.
PBMC pellets were resuspended in a lysis buffer containing protease and phosphatase inhibitors (10 mM Tris pH 7.0, 1 mM EDTA, 0.5 mM EGTA, 1% Triton X-100, 0.1% sodium deoxycholate, 0.1% SDS, 140 mM NaCl, 2.5 mM sodium pyrophosphate, 1 mM sodium orthovanadate, 1 mM β-glycerophosphate (pH 7.4) protease inhibitor cocktail Roche (1×). Cell suspensions were then sonicated on ice 2×20 sec. Cell lysates were centrifuged at 2,000 g for 10 min at 4° C. and the supernatant collected.
Total protein was measured using a micro BCA protein assay kit [Thermo Fisher Scientific 23235]. Western blot analysis was performed using 10 μg of total protein of each of the homogenates that were electrophoresed at 130 V for 1 hour through 4-12% Bis-Tris Plus SDS-PAGE gels (Bolt™, Invitrogen, Thermofisher Scientific). The gels were transferred to a methanol-activated PVDF membrane at 35 V for 70 min. […]

P62 in PBMCs = experiment: Whole blood incubation, P62 western blot in PBMCs; format: cell-based, human; conditions: chloroquine 0-200 μM in whole blood, 1 h at 37° C., four subjects
Procedure: (§1) Blood was mixed gently by inverting both tubes 3-4 times.
(§2) (with brake). The supernatant was discarded.
(§3) This tube was centrifuged at 2,000 g for 10 min at 4° C.
(§4) The gels were transferred to a methanol-activated PVDF membrane at 35 V for 70 min.
(§5) The membranes were incubated overnight at 4° C. with primary antibodies diluted in block solution on a tube roller.

SQSTM1/P62 in PBMCs = experiment: Primary culture of PBMCs with or without chloroquine, SQSTM1/P62 western blot; format: cell-based, human; conditions: 150 μM chloroquine, one-hour, isolated PBMCs in RPMI, N=3
Procedure: (§6) The supernatant was discarded.
Images were analyzed using ImageJ software.
These populations were verified by flow cytometry (FIG. 5B).

LC3A in PBMCs = experiment: Whole blood incubation, LC3A western blot in PBMCs; format: cell-based, human; conditions: chloroquine 0-200 μM in whole blood, 1 h at 37° C., four subjects
Procedure: as §1, §2, §3, §4, §5

[1] = test system: LC3B-II in PBMCs and PMNs; conditions: 150 μM chloroquine, one-hour, isolated PBMCs and PMNs in RPMI, N=3
Procedure: as §6, §6, §3, §4

## CO/C1=C\C(C)=C\[C@@H](C)[C@@H](O)[C@@H](C)C/C(C)=C/C=C/[C@H](OC)[C@@H]([C@@H](C)[C@@H](O)[C@H](C)[C@@]2(O)C[C@@H](O)[C@H](C)[C@@H](C(C)C)O2)OC1=O [Bafilomycin, bafilomycin A1]
LC3B-II in PBMCs; whole blood from four individuals, one hour at 37° C., ethanol vehicle
  LC3BII cargo in PBMCs: increased LC3BII cargo

## O=C([O-])CN(CCN(CC(=O)[O-])CC(=O)O)CC(=O)[O-].[K+].[K+].[K+] [EDTA]
LC3B-II in PBMCs; EDTA tubes compared with lithium-heparin tubes, three subjects
  LC3B-II signal in no-chloroquine samples (basal state): lower

## CCN(CC)CCCC(C)Nc1ccnc2cc(Cl)ccc12 (stereo not drawn) [chloroquine]
P62 in PBMCs
  P62 protein abundance: increased protein abundance with chloroquine treatment was observed in three out of four subjects
SQSTM1/P62 in PBMCs
  P62 level after chloroquine treatment: did not change
LC3B-II in PBMCs; 150 μM chloroquine in whole blood, 0-120 minutes of incubation
  LC3BII accumulation over time: near-linear increase in LC3BII accumulation
LC3B-II in PBMCs; chloroquine 0-200 μM in whole blood, 1 h at 37° C., four subjects
  LC3B-II response to chloroquine titration (ΔLC3BII, measure of autophagic flux): robust directly proportional increase in response to increasing chloroquine concentration in whole blood up until 150 μM; also recorded: robust, directly proportional increase in response to increasing chloroquine concentration in whole blood up to 150 μM, after which a ceiling effect was observed
LC3A in PBMCs
  LC3A response to chloroquine treatment: not clearly responding
[1]
  LC3B-II level (LC3B-II degradation inhibited): increase in LC3B-II

## lithium heparin [lithium-heparin]
LC3B-II in PBMCs; lithium-heparin compared with EDTA tubes, 150 μM chloroquine one-hour at 37° C., three subjects
  autophagic flux (ΔLC3B-II) by anti-coagulant of the collection tube: greater
